Some results are limits rather than exact numbers.

Chain of human adenosine A3 receptor (P0DMS8 whole entry): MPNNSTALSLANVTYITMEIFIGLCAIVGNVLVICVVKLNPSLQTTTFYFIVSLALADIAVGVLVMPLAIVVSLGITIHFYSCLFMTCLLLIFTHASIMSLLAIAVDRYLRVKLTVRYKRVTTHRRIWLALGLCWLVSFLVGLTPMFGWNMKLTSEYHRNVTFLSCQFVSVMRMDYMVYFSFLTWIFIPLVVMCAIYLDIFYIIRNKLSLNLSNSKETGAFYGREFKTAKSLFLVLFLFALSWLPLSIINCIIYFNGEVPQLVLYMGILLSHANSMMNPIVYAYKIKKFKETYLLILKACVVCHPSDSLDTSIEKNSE

The experiment concerns the target human adenosine A3 receptor (Homo sapiens (Human), UniProt P0DMS8). The experiment is described as follows: Adenosine receptor binding assay ([125I]-AB-MECA competition). The note with it: inhibition of 0.15 nM [125I]-AB-MECA binding, membranes of cells expressing human A3 receptor; read-out: hA3 Ki: Ki. In short, it runs like this: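 Competition against 0.15 nM [125I]-AB-MECA was run for 120 min at room temperature on 20 μg human A3-transfected cell membranes in 50 mM Tris pH 7.4, with or without 10 mM MgCl2. Bound label was counted after filtration. Ki was derived by Cheng-Prusoff from Hill-fitted IC50 values.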
Consider `Cc1c(Cl)nc2c(ncn2[C@H]2[C@H](O)[C@H](O)[C@@H]3C[C@@H]32)c1NCC(F)F` [Compound 60, (1R,2R,3S,4R,5S)-4-(5-chloro-7-((2,2-difluoroethyl)amino)-6-methyl-3H-imidazo[4,5-b]pyridin-3-yl)bicyclo[3.1.0]hexane-2,3-diol], for which the Ki – broadly, a dissociation constant, usually derived from enzyme kinetics or from competition with a known ligand – was more than 9400 nM.
For `CCNc1cc(C#CC2CC2)nc2c1ncn2[C@H]1[C@H](O)[C@H](O)[C@@H]2C[C@@H]21` [Compound 46, (1R,2R,3S,4R,5S)-4-(5-(cyclopropylethynyl)-7-(ethylamino)-3H-imidazo[4,5-b]pyridin-3-yl)bicyclo[3.1.0]hexane-2,3-diol] the value was 21.3 nM; for `O[C@@H]1[C@H](O)[C@@H]2C[C@@H]2[C@H]1n1cnc2c(NCC(F)F)nc(Cl)nc21` [Compound 35, (1R,2R,3S,4R,5S)-4-(2-chloro-6-((2,2-difluoroethyl)amino)-9H-purin-9-yl)bicyclo[3.1.0]hexane-2,3-diol], 1.7 nM; for `O[C@@H]1[C@H](O)[C@@H]2C[C@@H]2[C@H]1n1cnc2c(NCC(F)F)cc(Cl)nc21` [Compound 40, (1R,2R,3S,4R,5S)-4-(5-chloro-7-((2,2-difluoroethyl)amino)-3H-imidazo[4,5-b]pyridin-3-yl)bicyclo[3.1.0]hexane-2,3-diol], 2 nM.

For the origin of these results see patent publication US20230416245A1, “ADENOSINE ANALOGS FOR THE TREATMENT OF DISEASE” (BIOINTERVENE, INC., priority 2020, published 2023).
